Laboratory results as given in patent publication US20180221329A1, “CIS- AND TRANS-SUFFRUTICOSOL D AS THERAPEUTIC AGENTS” (MIDDLE TENNESSEE STATE UNIVERSITY, priority 2015, published 2018).

Key:
[1] = test system: U2OS (human osteosarcoma) cells; experiment: Cell proliferation assay (AlamarBlue), U2OS; assay type: cell-based; details: for Selectivity: U2OS versus normal HMEC cells; for IC50: U2OS, 48 h, AlamarBlue
Procedure: (§1) Cell culture. Four human cancer cell lines including A549 (lung carcinoma), BT20 (estrogen receptor-negative human breast adenocarcinoma), MCF-7 (estrogen receptor-positive human breast adenocarcinoma) and U2OS (human osteosarcoma) were purchased from American Type Culture Collection (ATCC). An A549 cell line that stably expresses Green Fluorescent Protein (GFP) was purchased from Cell BioLabs Inc. (San Diego, Calif., USA). A549, A549-GFP and BT20 cells were cultured in RPMI 1640 media (Sigma-Aldrich, St. Louis, Mo., USA), MCF7 cells were cultured in DMEM medium (ATCC, Manassas, Va., USA), and U20S cells were cultured in McCoy's 5A medium (ATCC, Manassas, Va., USA). As a control, HMEC cells (primary human mammary breast epithelial cells) were purchased from ATCC and cultured in McCoy's 5A medium. All medium contained 10% FBS (Sigma-Aldrich, St. Louis, Mo., USA) and 1% streptomycin and penicillin (Sigma-Aldrich, St. Louis, Mo., USA). These cells were incubated in a humid environment with 5% CO2 at 37° C.
(§2) Cell proliferation assay. The resazurin reduction reagent AlamarBlue (Invitrogen, Frederick, Md., USA) was used to evaluate the cytotoxicity of the compounds. Cells were plated at a density of 5×10^3 cells per well in 96-well microplates with 100 μl culture medium, and were allowed to attach for 16 h prior to treatment. Next, all the medium was replaced with medium containing the cis- or trans-suffruticosol D compounds at seven different concentrations: 320, 100, 32, 10, 3.2, 1.0, and 0.32 μM. The cells were placed in an incubator for 48 h at 37° C. Cells that were treated with medium-containing vehicle (1% DMSO) only serve as negative control. Subsequently, AlamarBlue solution was added to the medium and the cells were incubated in the CO2 incubator for 1 h. The fluorescent intensity change of the dye was measured at Ex 555 nm and Em 590 nm using a plate reader (Molecular Devices, Sunnyvale, Calif., USA). The cytotoxicity was examined by determining by IC50, the dose that inhibited 50% of cell growth, using GraphPad Prism software (GraphPad Software, La Jolla, Calif., USA).
(§3) Table 1. IC50 values of cis- and trans-suffruticosol D in selected cancer and normal cell lines. Cells were treated with various concentrations of cis- or trans-suffruticosol D for 48 h, and the viability of cells was evaluated with AlamarBlue dye.

[2] = test system: HMEC cells (primary human mammary breast epithelial cells); experiment: Cell proliferation assay (AlamarBlue), normal HMEC; assay type: cell-based; details: 48 h
Procedure: as §1, §2, §3

A549 cells [3] = experiment: Oxidative stress assay (ROS, DHE, HCS reader); assay type: cell-based, human; details: 24 h
Procedure: FIGS. 3A and 3B depict induction of oxidative stress by cis- and trans-suffruticosol D in A549 cells. A549 cells were treated with various concentrations of cis- or trans-suffruticosol D for 24 h, then stained with Hoechst and dihydroethidium (DHE) dye. Cells treated with Doxorubicin served as a positive control, and cells treated with vehicle only served as a negative control. The reactive oxygen species (ROS) levels were measured by the fluorescent intensity of DHE that was converted to ethidium bromide.
Oxidative stress assay. The Hitkit oxidative stress kit (Thermo Scientific, Waltham, Mass., USA) was used to determine the generation of reactive oxygen species (ROS) according to the manufacturer's instructions. Briefly, A549 cells were treated with cis- or trans-suffruticosol D for 24 h, fixed with warm 37% formaldehyde and stained with Hoechst and dihydroethidium (DHE) dye for 30 min at 37° C. with 5% CO2. Doxorubicin (DOX) at 1 μM concentration was used as a positive control and cells treated with vehicle only were used as negative control. ROS generation in the nuclei was indicated by the production of the fluorescent ethidium, and assessed by measuring the nuclear fluorescent intensity using an ArrayScan VTI High-content screening (HCS) reader (Thermo Scientific, Waltham, Mass., USA). Images were acquired and data was analyzed by vHCS Scan software.

A549 cells [4] = experiment: Multi-parameter cytotoxicity assay (HCS); assay type: cell-based, human; details: 24 h; for mitochondrial membrane potential: all tested concentrations
Procedure: FIGS. 5A-D depict multi-parameter analysis of cytotoxicity induced by cis- and trans-suffruticosol D in A549 cells. A549 cells were treated with various concentrations of cis- or trans-suffruticosol D for 24 h, then stained with three dyes simultaneously (Hoechst, cell permeability dye, and mitochondrial membrane potential dye). Cells treated with vehicle only served as a negative control and cells treated with 10 μM valinomycin served as a positive control.
Multi-parameter cytotoxicity assay. HCS analysis was used to measure nuclear morphology, cell membrane permeability, and mitochondrial membrane potential changes, the three parameters associated with cytotoxicity. A549 cells were treated with different concentrations of cis- or trans-suffruticosol D for 24 h. The cells were then fixed and stained with a warm solution containing Hoechst dye, Membrane Permeability Dye, and Mitochondrial membrane Potential Dye (Thermo Scientific, Waltham, Mass., USA). Cells were imaged using an Arrayscan VTI HCS reader (Thermo Scientific, Waltham, Mass., USA). Data on nuclear size, cell permeability, and mitochondria membrane potential were collected and analyzed using vHCS Scan software.

[5] = test system: NF-κB p65 nuclear translocation; experiment: NF-κB nuclear translocation assay (HCS); assay type: cell-based, human; details: 4 h, then TNF-α 30 min, A549
Procedure: FIGS. 6A and 6B depict inhibition of NF-κB translocation by cis- and trans-suffruticosol D in A549 cells. A549 cells were treated with various concentrations of cis- or trans-suffruticosol D for 4 h and then stimulated with […] TNF-α for 30 min. Cells treated with TNF-α alone or the vehicle only served as controls. The NF-κB translocation index was measured by the fluorescent intensity difference between the nucleus and cytoplasm.
NF-κB nuclear translocation assay. A Multiplexed NF-κB activation HCS Kit (Thermo Scientific, Waltham, Mass., USA) was used to assess NF-κB nuclear translocation. A549 cells were pre-treated with different concentrations of cis- or trans-suffruticosol D for 4 h, then 10 ng/mL of TNF-α was added to the cells for an additional 30 min. After treatment, cells were fixed and permeabilized prior to detection. NF-κB distribution was detected by adding NF-κB p65 primary antibodies and then staining with a secondary antibody conjugated with DyLight 549 and Hoechst dye (Thermo Scientific, Waltham, Mass., USA). […] Cells were imaged using an Arrayscan VTI HCS reader (Thermo Scientific, Waltham, Mass., USA). Data on the mean difference of NF-κB fluorescent intensity between the nuclear and cytoplasmic areas were collected and analyzed by vHCS Scan software.

[6] = test system: apoptotic proteins in A549 cells; experiment: Apoptosis antibody array; assay type: cell-based, human; details: 50 μM, 6 h

| SMILES | increase of ROS levels (A549 cells [3]; 10 μM) [%] | increase of ROS levels (A549 cells [3]; 32 μM) [%] | increase of ROS levels (A549 cells [3]; 100 μM) [%] | mitochondrial membrane potential (A549 cells [4]) | BH3 interacting-domain death agonist (BID) expression [6] | cyclin-dependent kinase inhibitor 1B (p27Kip1) expression [6] | death receptor 6 (DR6) expression [6] | also measured |
| --- | --- | --- | --- | --- | --- | --- | --- | --- |
| Oc1ccc(C=Cc2c3c(cc4c2[C@@H](c2cc(O)cc(O)c2)[C@H](c2ccc(O)cc2)O4)O[C@H](c2ccc(O)cc2)[C@@H]3c2cc(O)cc(O)c2)cc1 [cis-suffruticosol D] | 32.8 | 55.6 | 73.1 | significant decrease | up-regulated | up-regulated | up-regulated | Selectivity ([1]; listed as cis-SD): 11; IC50 ([1]; listed as cis-SD): 24.6 ± 4.4 µM; IC50 [2]: 146 µM; IC50 ([2]; listed as cis-SD): 269.5 ± 2.2 µM; cell membrane permeability (A549 cells [4]; various concentrations): no significant change; nuclear size (A549 cells [4]; various concentrations): no significant change; inhibition of NF-κB activation (nuclear translocation index) ([5]; 100 μM only): significant inhibition |
| Oc1ccc(/C=C/c2c3c(cc4c2[C@@H](c2cc(O)cc(O)c2)[C@H](c2ccc(O)cc2)O4)O[C@H](c2ccc(O)cc2)[C@@H]3c2cc(O)cc(O)c2)cc1 [trans-suffruticosol D] | 32.8 | 34.6 | 87.2 | significant decrease | up-regulated | up-regulated | up-regulated | Selectivity ([1]; listed as trans-SD): 12.9; IC50 ([1]; listed as trans-SD): 11.3 ± 2.3 µM; IC50 ([2]; listed as trans-SD): 146 ± 2.7 µM; IC50 ([2]; Homo sapiens, HMEC): 270 µM; cell membrane permeability (A549 cells [4]; 100 μM): increased cell membrane permeability; nuclear size (A549 cells [4]; 100 μM): nuclei shrinkage; inhibition of NF-κB activation (nuclear translocation index) ([5]; all the tested concentrations): significant inhibition |
